Laboratory results: PubChem BioAssay (NCI)
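Protocol summary: plate cells (96-well), add compound at 5 concentrations, incubate 48 h, interpolate endpoints linearly. GI50 marks 50% less growth. The concentration for full growth arrest is given as TGI.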

Legend:
Assay in all cases: NCI-60 cell line screen, 48 h
[1] = test system: SK-MEL-28 melanoma
[2] = test system: NCI-H522 lung
[3] = test system: IGROV1 ovarian
[4] = test system: SF-539 CNS
[5] = test system: MDA-MB-435
[6] = test system: HOP-62 NSCLC
[7] = test system: HCT-116 colon
[8] = test system: HOP-92 NSCLC
[9] = test system: SN12C renal
[10] = test system: BT-549 breast
[11] = test system: COLO 205 colon
[12] = test system: K-562 leukemia
[13] = test system: UO-31 renal
[14] = test system: CAKI-1 renal
[15] = test system: RPMI-8226 leukemia
[16] = test system: OVCAR-4 ovarian
[17] = test system: 786-0 renal
[18] = test system: HCC-2998 colon
[19] = test system: HCT-15 colon
[20] = test system: MOLT-4 leukemia
[21] = test system: NCI/ADR-RES ovarian
[22] = test system: MCF7 breast
[23] = test system: SF-295 CNS
[24] = test system: SK-OV-3 ovarian
[25] = test system: HT29 colon
[26] = test system: SNB-19 CNS
[27] = test system: SK-MEL-5 melanoma
[28] = test system: A549 NSCLC
[29] = test system: A498 renal
[30] = test system: SW-620 colon
[31] = test system: U251 CNS
[32] = test system: OVCAR-5 ovarian
[33] = test system: RXF 393 renal
[34] = test system: CCRF-CEM leukemia
[35] = test system: LOX IMVI melanoma
[36] = test system: NCI-H23 lung
[37] = test system: KM12 colon
[38] = test system: ACHN renal
[39] = test system: OVCAR-3 ovarian
[40] = test system: HS 578T breast
[41] = test system: PC-3 prostate
[42] = test system: DU-145 prostate
[43] = test system: TK-10 renal
[44] = test system: SNB-75 CNS
[45] = test system: M14 melanoma
[46] = test system: SF-268 CNS
[47] = test system: UACC-257 melanoma
[48] = test system: T-47D breast
[49] = test system: SK-MEL-2 melanoma
[50] = test system: SR leukemia
[51] = test system: EKVX NSCLC
[52] = test system: OVCAR-8 ovarian
[53] = test system: MDA-MB-231 breast
[54] = test system: UACC-62 melanoma
[55] = test system: NCI-H226 lung
[56] = test system: NCI-H460 lung
[57] = test system: HL-60(TB) leukemia

For `O=c1nc(Oc2c(F)c(F)c(F)c(F)c2F)ccn1C1OC(CO)C(O)C1O` (configuration not stated), the TGI [1] was > 100 µM, the TGI [2] was > 100 µM and the TGI [3] was > 100 µM. For the same compound, the TGI [4] was > 100 µM, the TGI [5] was > 100 µM and the TGI [6] was > 100 µM. For the same compound, the TGI [7] was > 100 µM, the TGI [8] was > 100 µM and the TGI [9] was > 100 µM. For the same compound, the TGI [10] was > 100 µM, the TGI [11] was > 100 µM and the TGI [12] was > 100 µM. For the same compound, the TGI [13] was > 100 µM, the TGI [14] was > 100 µM and the TGI [15] was > 100 µM. The TGI [16] was > 100 µM, the TGI [17] was > 100 µM and the TGI [18] was > 100 µM. The TGI [19] was > 100 µM, the TGI [20] was > 100 µM and the TGI [21] was > 100 µM. For the same compound, the TGI [22] was > 100 µM, the TGI [23] was > 100 µM and the TGI [24] was > 100 µM. The TGI [25] was > 100 µM, the TGI [26] was > 100 µM and the TGI [27] was > 100 µM. For the same compound, the TGI [28] was > 100 µM, the TGI [29] was > 100 µM and the TGI [30] was > 100 µM. For the same compound, the TGI [31] was > 100 µM, the TGI [32] was > 100 µM and the TGI [33] was > 100 µM. The TGI [34] was > 100 µM, the TGI [35] was > 100 µM and the TGI [36] was > 100 µM. For the same compound, the TGI [37] was > 100 µM, the TGI [38] was > 100 µM and the TGI [39] was > 100 µM. For the same compound, the TGI [40] was > 100 µM, the TGI [41] was > 100 µM and the TGI [42] was > 100 µM. For the same compound, the TGI [43] was > 100 µM, the TGI [44] was > 100 µM and the TGI [45] was > 100 µM. The TGI [46] was > 100 µM, the TGI [47] was > 100 µM and the TGI [48] was > 100 µM. The TGI [49] was > 100 µM, the TGI [50] was > 100 µM and the TGI [51] was > 100 µM. The TGI [52] was > 100 µM, the TGI [53] was > 100 µM and the TGI [54] was > 100 µM.

Compound `Cc1cccc(NC(=O)c2sc3nc4c(cc3c2N)CCCC4)c1` has a GI50 [55] of 9.68 µM, a TGI [55] of 73.5 µM and a GI50 [1] of 9.23 µM. The TGI [1] was > 100 µM, the GI50 [56] was 5.25 µM and the TGI [56] was > 100 µM. For the same compound, the GI50 [2] was 16.4 µM, the TGI [2] was > 100 µM and the GI50 [3] was 17.7 µM. For the same compound, the TGI [3] was > 100 µM, the GI50 [4] was 4.74 µM and the TGI [4] was 60.5 µM. The GI50 [5] was 0.305 µM, the TGI [5] was 2 µM and the GI50 [6] was 4.97 µM. The TGI [6] was 36.8 µM, the GI50 [7] was 2.59 µM and the TGI [7] was > 100 µM. It also gave a GI50 [8] of 9 µM, a TGI [8] of 32 µM and a GI50 [9] of 24 µM. The TGI [9] was > 100 µM, the GI50 [10] was 7.56 µM and the TGI [10] was 62 µM. The GI50 [11] was 4.96 µM, the TGI [11] was > 100 µM and the GI50 [57] was 2.36 µM. The TGI [57] was 17.7 µM, the GI50 [13] was 25.2 µM and the TGI [13] was > 100 µM. For the same compound, the GI50 [14] was 6.7 µM, the TGI [14] was > 100 µM and the GI50 [15] was 5.74 µM. For the same compound, the TGI [15] was > 100 µM, the GI50 [16] was 3.22 µM and the TGI [16] was 39.1 µM. The GI50 [17] was 4.13 µM, the TGI [17] was 32.4 µM and the GI50 [18] was 45.4 µM. For the same compound, the TGI [18] was > 100 µM, the GI50 [19] was 0.845 µM and the TGI [19] was > 100 µM. For the same compound, the GI50 [20] was 12 µM, the TGI [20] was > 100 µM and the GI50 [21] was 4.59 µM. For the same compound, the TGI [21] was > 100 µM, the GI50 [22] was 1.15 µM and the TGI [22] was > 100 µM. For the same compound, the GI50 [23] was 3.51 µM, the TGI [23] was 23.8 µM and the GI50 [24] was 12.9 µM. It also gave a TGI [24] of 63.9 µM, a GI50 [26] of 6.92 µM and a TGI [26] of 68 µM. It also gave a GI50 [27] of 2.3 µM, a TGI [27] of 47.3 µM and a GI50 [28] of 8.33 µM. The TGI [28] was > 100 µM, the GI50 [29] was 5.87 µM and the TGI [29] was 66.4 µM. For the same compound, the GI50 [30] was 3.42 µM, the TGI [30] was > 100 µM and the GI50 [31] was 8.33 µM. For the same compound, the TGI [31] was 45.2 µM, the GI50 [32] was > 100 µM and the TGI [32] was > 100 µM. It also gave a GI50 [33] of 4.71 µM, a TGI [33] of 23.2 µM and a GI50 [34] of 4.46 µM. The TGI [34] was > 100 µM, the GI50 [35] was 8.52 µM and the TGI [35] was > 100 µM. For the same compound, the GI50 [36] was 27.8 µM, the TGI [36] was > 100 µM and the GI50 [37] was 3.32 µM. The TGI [37] was > 100 µM, the GI50 [38] was 10.5 µM and the TGI [38] was > 100 µM. For the same compound, the GI50 [39] was 4.84 µM, the TGI [39] was > 100 µM and the GI50 [40] was 9.92 µM. For the same compound, the TGI [40] was > 100 µM, the GI50 [41] was 16.2 µM and the TGI [41] was > 100 µM. The GI50 [42] was 13.4 µM, the TGI [42] was > 100 µM and the GI50 [43] was 13.7 µM. For the same compound, the TGI [43] was 90.6 µM, the GI50 [44] was 3.84 µM and the TGI [44] was 18.9 µM. The GI50 [45] was 2 µM, the TGI [45] was > 100 µM and the GI50 [46] was 10.7 µM. The TGI [46] was > 100 µM, the GI50 [47] was > 100 µM and the TGI [47] was > 100 µM. The GI50 [48] was 10.2 µM, the TGI [48] was > 100 µM and the GI50 [49] was 8.99 µM. It also gave a TGI [49] of 52.5 µM, a GI50 [50] of 0.549 µM and a TGI [50] of 11.2 µM. For the same compound, the GI50 [52] was 20.9 µM, the TGI [52] was > 100 µM and the GI50 [53] was 14.8 µM. For the same compound, the TGI [53] was 52.2 µM, the GI50 [54] was 2.19 µM and the TGI [54] was > 100 µM.
